Results taken from patent US20230053540A1, “TREATMENT OF LIVER INJURY” (Massachusetts Institute of Technology, priority 2019, published 2023).

System: hepatocytes
Assay: Seq-Well scRNA-Seq of hepatocytes after APAP overdose (signature scores, DEG vs untreated)
Format: in vivo, mouse
Conditions: A96 vs untreated (UT)

Compound: CC(=O)Nc1ccc(O)cc1 [APAP, acetaminophen]
- Nfe2l1 pct.1: 0.508
- Nfe2l2 avg_logFC: 0.3048
- Nfe2l2 pct.1: 0.465
- Nfib avg_logFC: 0.2501
- Nfib pct.1: 0.55
- Nr1i3 avg_logFC: 0.3735
- Nr1i3 pct.1: 0.625
- Nucks1 avg_logFC: 0.2509
- Nucks1 pct.1: 0.621
- Nudt7 avg_logFC: −1.14
- Nudt7 pct.1: 0.602
- Pabpc1 avg_logFC: 0.3693
- Pabpc1 pct.1: 0.766
- Palmd avg_logFC: 0.2584
- Palmd pct.1: 0.43
- Pbld1 avg_logFC: 0.2811
- Pbld1 pct.1: 0.723
- Pcbp2 avg_logFC: 0.3113
- Pcbp2 pct.1: 0.621
- Pdia6 avg_logFC: −0.3359
- Pdia6 pct.1: 0.611
- Pdk1 avg_logFC: 0.2561
- Pdk1 pct.1: 0.438
- Pex11a avg_logFC: 0.462
- Pex11a pct.1: 0.7
- Phyh avg_logFC: 0.2541
- Phyh pct.1: 0.998
- Pigr avg_logFC: 0.2754
- Pigr pct.1: 0.957
- Plin5 avg_logFC: 0.2663
- Plin5 pct.1: 0.532
- Pltp avg_logFC: 0.2919
- Pltp pct.1: 0.237
- Pnp1a8 avg_logFC: 0.3083
- Pnp1a8 pct.1: 0.723
- Ppap2b avg_logFC: 0.2573
- Ppap2b pct.1: 0.593
- Ppara avg_logFC: 0.3055
- Ppara pct.1: 0.614
- Ppib avg_logFC: −0.3519
- Ppib pct.1: 0.696
- Ppm1a avg_logFC: 0.276
- Ppm1a pct.1: 0.571
- Ppp2r5a avg_logFC: 0.3493
- Ppp2r5a pct.1: 0.764
- Prkd3 avg_logFC: 0.305
- Prkd3 pct.1: 0.682
- Prlr avg_logFC: 0.3611
- Prlr pct.1: 0.574
- Pten avg_logFC: 0.3025
- Pten pct.1: 0.64
- Ptms avg_logFC: 0.3243
- Ptms pct.1: 0.806
- Ptp4a2 avg_logFC: 0.259
- Ptp4a2 pct.1: 0.691
- Ptplad1 avg_logFC: 0.2783
- Ptplad1 pct.1: 0.654
- Ptprd avg_logFC: 0.2719
- Ptprd pct.1: 0.582
- Pxmp4 avg_logFC: 0.2794
- Pxmp4 pct.1: 0.687
- Rdh7 avg_logFC: 0.2671
- Rdh7 pct.1: 0.995
- Rdh16 avg_logFC: 0.3716
- Rdh16 pct.1: 0.494
- Reep6 avg_logFC: 0.3193
- Reep6 pct.1: 0.891
- Retsat avg_logFC: 0.5333
- Retsat pct.1: 0.957
- Saa1 avg_logFC: −1.157
- Saa1 pct.1: 0.232
- Sc4mol avg_logFC: 0.2814
- Sc4mol pct.1: 0.781
- Sdhc avg_logFC: 0.3181
- Sdhc pct.1: 0.76
- Sec14l2 avg_logFC: 0.2724
- Sec14l2 pct.1: 0.939
- Secisbp2l avg_logFC: 0.2781
- Secisbp2l pct.1: 0.529
- Selenbp2 avg_logFC: −1.258
- Selenbp2 pct.1: 0.612
- Sepp1 avg_logFC: 0.2839
- Sepp1 pct.1: 1
- Serpina1a avg_logFC: −0.2708
- Serpina1a pct.1: 0.991
- Serpina1b avg_logFC: −0.3845
- Serpina1b pct.1: 0.996
- Serpina1c avg_logFC: −0.3176
- Serpina1c pct.1: 0.998
- Serpina1e avg_logFC: −1.134
- Serpina1e pct.1: 0.977
- Serpina3k avg_logFC: −0.3036
- Serpina3k pct.1: 1
- Serpina12 avg_logFC: −0.5326
- Serpina12 pct.1: 0.226
- Serpinf1 avg_logFC: 0.2572
- Serpinf1 pct.1: 0.934
- Sh3glb1 avg_logFC: 0.2538
- Sh3glb1 pct.1: 0.433
- Slc4a4 avg_logFC: 0.4025
- Slc4a4 pct.1: 0.609
